Source: patent US20260265256A1 (IMPACT THERAPEUTICS (SHANGHAI), INC., priority 2023, published 2026)

Tests used:
PDE3A = molecular target: T1, PDE3A (Homo sapiens, UniProt Q14432); experiment: PDE3A fluorescence polarization (FP) assay; assay type: biochemical; conditions: 2 nM PDE3A, 0.2 μM FAM-cAMP, read-out: IC50 (μM), PDE3A enzyme activity
T1 construct: purchased Sino Biological 11908-H20B1
Description: A PDE3A fluorescence polarization (FP) assay in a multi-step format was performed using black, round bottom 384-well plates (Corning, 4514). The testing compounds were serially diluted from stock solutions to 11 concentrations with a 3-fold dilution factor using DMSO. Fifty nL of compound dilutions was mixed with 5 μL of reaction buffer (10 mM Tris-HCl, pH 7.2, 10 mM MgCl2, 0.05% NaN3, 0.1% phosphate-free BSA) containing 0.2 μM FAM-cAMP (BPS, 60200) and 2 nM PDE3A (Sino Biological, 11908-H20B1) enzyme, and incubated for 60 min at 25° C. Afterwards, 15 μL binding agent mixture (Molecular Devices, R8124) was added to each well and the plate was incubated for 60 min at 25° C. The plate was loaded to a BMG PHERAstar FSX to read Fluorescence Polarization (FP) values at a setting of: Ex: 485 nm and Em: 520 nm. Emission light intensity with polarizers parallel (Em|) and emission light intensity with polarizers perpendicular (Em⊥) were recorded. The Polarization (mP) values were calculated using the following formula: mP=(SignalEm|−SignalEm⊥)/(SignalEm|+SignalEm⊥).
Data analysis: • 1) The inhibition % of a compound dose is calculated as:
[formula] • wherein mPMin and mPMax refer to the polarization readings in the condition of substrate only and substrate+enzyme, respectively. • 2) The IC50 values were calculated from non-linear curve fitting using following regression equation using a commercial curve fitting software GraphPad Prism 9.2.0.
wherein X refers to Log of compound concentration and Y refers to % Inhibition.
Table 3 summarize the inhibitory effects of compounds on PDE3A enzyme activity (IC50).

MDA-MB-436 cells = experiment: Growth inhibition assay against BRCA mutant human breast cancer MDA-MB-436 cell line (CCK-8, 7 days); assay type: cell-based; conditions: 168 h, MDA-MB-436, 7 days, read-out: IC50 (nM), proliferation of human breast cancer cells MDA-MB-436
Description: The cells were cultured in complete medium (DMEM medium+10% FBS+Insulin+glutathione). When the confluence reached about 80%, cells were digested and gently dispensed from the bottom of the dish with a 1 mL pipette. Cell suspension was collected and centrifuged at 500 rpm for 3 min. The supernatant was discarded, and the cell pellet were re-suspended in complete medium. The cells were seeded into a culture dish at an appropriate proportion, and then cultured in a 5% CO2 incubator at 37° C. The assay was carried out when the cells were in optimum condition and the confluence was reached 80%. Cells in the logarithmic growth phase were taken to centrifugate, and the culture supernatant was removed. The cells were resuspended in refresh complete medium and counted. The resuspended cells were seeded at 3000/well in a 96-well plate and incubated at 37° C., 5% CO2 incubator overnight. […] The solution was mixed by oscillation. 0.10% DMSO was used as the control.
The next day, the 96-well plate inoculated with cells was taken out from the incubator, and the culture supernatant was removed. Then fresh medium of 195 uL/well and 5 μL/well of 40× test compound solution as mentioned above were added into the 96 well plate, respectively. Finally, the plate was incubated for 7 days in a 37° C. 5% CO2 incubator. The medium containing compound was changed on the fourth day. After 7 days, 20 μL of CCK-8 was added to each well and shaken gently, then was cultured for 4 hours. The plate was shaken for 5 min after incubation, the absorbance values of 450 nm or 650 nm wavelengths were recorded respectively (OD=absorbance value of 450 nm−absorbance value of 650 nm) by using the multifunction readout instrument.
Data were analyzed by software GraphPad Prism 6.0. The inhibitory activity of compounds on cell proliferation was plotted using cell survival rate against the compound concentration as coordinates. Cell survival rate %=(ODcompound−ODbackground)/(ODDMSO−ODbackground)×100.
Table 2 summarizes the inhibitory effect data (IC50) of the compounds on the proliferation of human breast cancer cells MDA-MB-436.

[1] = molecular target: recombinant poly(ADP-ribose) polymerase 2 (PARP2) (Homo sapiens, UniProt Q9UGN5); experiment: PARP2 chemiluminescent assay; assay type: biochemical; conditions: PARP2 enzyme activity, chemiluminescence, 40 ng enzyme/well
Chain of recombinant poly(ADP-ribose) polymerase 2 (PARP2) (Q9UGN5 whole entry): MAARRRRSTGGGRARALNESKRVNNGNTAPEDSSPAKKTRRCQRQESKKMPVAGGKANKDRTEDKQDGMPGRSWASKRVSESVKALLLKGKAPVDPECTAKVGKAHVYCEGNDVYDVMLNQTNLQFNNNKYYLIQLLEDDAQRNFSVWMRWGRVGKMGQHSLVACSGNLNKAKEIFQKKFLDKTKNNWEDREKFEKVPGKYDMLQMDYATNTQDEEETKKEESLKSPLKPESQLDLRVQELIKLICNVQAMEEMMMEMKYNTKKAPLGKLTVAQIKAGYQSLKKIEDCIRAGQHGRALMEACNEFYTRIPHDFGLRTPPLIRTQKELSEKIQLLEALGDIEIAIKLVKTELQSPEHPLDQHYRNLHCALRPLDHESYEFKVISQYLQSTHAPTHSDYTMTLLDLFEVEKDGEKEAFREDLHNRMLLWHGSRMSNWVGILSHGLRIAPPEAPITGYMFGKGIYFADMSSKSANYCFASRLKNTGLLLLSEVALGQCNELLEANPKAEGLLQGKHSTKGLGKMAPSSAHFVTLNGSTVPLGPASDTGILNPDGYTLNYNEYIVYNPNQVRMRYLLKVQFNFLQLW
Description: The solution of recombinant poly(ADP-ribose) polymerase 1 and 2 (PARP1 and PARP2) (40 ng enzyme/well) and the compounds to be tested were mixed, respectively. The solutions were added to a 96-well plate coated with histone mixture, incubated at room temperature for 1 h, then 50 μL 0.3 ng/mL Streptavidin-HRP was added to each well. The plates were incubated for 30 minutes at room temperature. Finally, the plates were treated with streptavidin-HRP followed by addition of the ELISA ECL substrate to produce chemiluminescence that can be measured using a chemiluminescence reader. Inhibition of the tested compound to PARP1/2 enzyme activity was calculated according to the following formula. [formula] IC50 value is obtained by fitting the s-shaped dose response curve equation by using XL Fit software.

T1 sequence (Q14432 669-1141 limits assumed): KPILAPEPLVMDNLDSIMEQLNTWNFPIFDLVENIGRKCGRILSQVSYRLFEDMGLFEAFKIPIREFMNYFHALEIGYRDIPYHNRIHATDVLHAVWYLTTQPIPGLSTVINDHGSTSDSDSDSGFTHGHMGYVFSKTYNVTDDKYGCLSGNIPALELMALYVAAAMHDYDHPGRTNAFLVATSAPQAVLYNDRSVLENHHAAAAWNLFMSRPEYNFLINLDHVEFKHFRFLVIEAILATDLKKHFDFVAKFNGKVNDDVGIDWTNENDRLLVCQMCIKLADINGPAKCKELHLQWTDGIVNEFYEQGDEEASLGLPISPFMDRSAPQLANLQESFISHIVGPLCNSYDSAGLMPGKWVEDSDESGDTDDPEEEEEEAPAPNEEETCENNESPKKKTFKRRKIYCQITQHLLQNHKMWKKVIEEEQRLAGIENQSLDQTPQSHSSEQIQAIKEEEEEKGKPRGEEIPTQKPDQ

| SMILES | IC50 (PDE3A) | IC50 (MDA-MB-436 cells) | IC50 [1] |
| --- | --- | --- | --- |
| CCNC(=O)c1ccc(-n2cc3c(n2)CN(Cc2ccc4c([nH]c(=O)c5c(C)cnn54)c2F)C3)cn1 [Example 6, 5-(5-((6-fluoro-3-methyl-4-oxo-4,5-dihydropyrazolo[1,5-a]quinoxalin-7-yl)methyl)-5,6-dihydropyrrolo[3,4-c]pyrazol-2(4H)-yl)-N-ethylpicolinamide] | > 30 µM | 2.07 nM | > 10000 nM |
| CNC(=O)c1ccc(-n2cc3c(n2)CCN(Cc2ccc4c([nH]c(=O)c5c(C)cnn54)c2F)C3)c(C)n1 [Example 11, 5-(5-((6-fluoro-3-methyl-4-oxo-4,5-dihydropyrazolo[1,5-a]quinoxalin-7-yl)methyl)-4,5,6,7-tetrahydro-2H-pyrazolo[4,3-c]pyridin-2-yl)-N,6-dimethylpicolinamide] | > 30 µM | > 100 nM | – |
| CNC(=O)c1ccc(-n2cc3c(n2)CCN(Cc2ccc4c([nH]c(=O)c5c(C)cnn54)c2F)C3)c(F)n1 [Example 12, 5-(5-((6-fluoro-3-methyl-4-oxo-4,5-dihydropyrazolo[1,5-a]quinoxalin-7-yl)methyl)-4,5,6,7-tetrahydro-2H-pyrazolo[4,3-c]pyridin-2-yl)-6-fluoro-N-methylpicolinamide] | > 30 µM | > 100 nM | – |
| CNC(=O)c1ccc(-n2cc3c(n2)CN(Cc2ccc4c([nH]c(=O)c5c(F)cnn54)c2F)C3)cn1 [Example 13, 5-(5-((3,6-difluoro-4-oxo-4,5-dihydropyrazolo[1,5-a]quinoxalin-7-yl)methyl)-5,6-dihydropyrrolo[3,4-c]pyrazol-2(4H)-yl)-N-methylpicolinamide] | > 30 µM | 0.99 nM | 42 nM |
| CNC(=O)c1ccc(-n2cc3c(n2)CN(Cc2ccc4c([nH]c(=O)c5c(F)cnn54)c2F)C3)c(C)n1 [Example 14, 5-(5-((3,6-difluoro-4-oxo-4,5-dihydropyrazolo[1,5-a]quinoxalin-7-yl)methyl)-5,6-dihydropyrrolo[3,4-c]pyrazol-2(4H)-yl)-N,6-dimethylpicolinamide] | > 30 µM | 5.06 nM | – |
| CNC(=O)c1ccc(-n2cc3c(n2)CN(Cc2ccc4c([nH]c(=O)c5c(F)cnn54)c2F)C3)c(F)n1 [Example 15, 5-(5-((3,6-difluoro-4-oxo-4,5-dihydropyrazolo[1,5-a]quinoxalin-7-yl)methyl)-5,6-dihydropyrrolo[3,4-c]pyrazol-2(4H)-yl)-6-fluoro-N-methylpicolinamide] | > 30 µM | 1.36 nM | 373 nM |
| CCNC(=O)c1ccc(-n2cc3c(n2)CN(Cc2ccc4c([nH]c(=O)c5c(F)cnn54)c2F)C3)cn1 [Example 18, 5-(5-((3,6-difluoro-4-oxo-4,5-dihydropyrazolo[1,5-a]quinoxalin-7-yl)methyl)-5,6-dihydropyrrolo[3,4-c]pyrazol-2(4H)-yl)-N-ethylpicolinamide] | > 30 µM | 0.59 nM | – |
| CCNC(=O)c1ccc(-n2cc3c(n2)CN(Cc2ccc4c([nH]c(=O)c5c(F)cnn54)c2F)C3)c(F)n1 [Example 19, 5-(5-((3,6-difluoro-4-oxo-4,5-dihydropyrazolo[1,5-a]quinoxalin-7-yl)methyl)-5,6-dihydropyrrolo[3,4-c]pyrazol-2(4H)-yl)-N-ethyl-6-fluoropicolinamide] | > 30 µM | 1.57 nM | > 10000 nM |
| CNC(=O)c1ccc(-n2cc3c(n2)CN(Cc2ccc4c([nH]c(=O)c5cc(F)nn54)c2F)C3)cn1 [Example 27, 5-(5-((2,6-difluoro-4-oxo-4,5-dihydropyrazolo[1,5-a]quinoxalin-7-yl)methyl)-5,6-dihydropyrrolo[3,4-c]pyrazol-2(4H)-yl)-N-methylpicolinamide] | > 30 µM | 1.44 nM | – |
| CNC(=O)c1ccc(-n2cc3c(n2)CN(Cc2ccc4c([nH]c(=O)n5cc(C)nc45)c2F)C3)cn1 [Example 49, 5-(5-((7-fluoro-2-methyl-5-oxo-5,6-dihydroimidazo[1,2-c]quinazolin-8-yl)methyl)-5,6-dihydropyrrolo[3,4-c]pyrazol-2(4H)-yl)-N-methylpicolinamide] | > 30 µM | 0.71 nM | – |
| CCNC(=O)c1ccc(-n2cc3c(n2)CN(Cc2ccc4c([nH]c(=O)n5cc(C)nc45)c2F)C3)c(F)n1 [Example 52, N-ethyl-6-fluoro-5-(5-((7-fluoro-2-methyl-5-oxo-5,6-dihydroimidazo[1,2-c]quinazolin-8-yl)methyl)-5,6-dihydropyrrolo[3,4-c]pyrazol-2(4H)-yl)picolinamide] | > 30 µM | 0.92 nM | – |
| CNC(=O)c1ccc(N2CC3=C(CN(Cc4ccc5c([nH]c(=O)c6c(F)cnn65)c4F)C3)C2)c(F)n1 [Example 58] | 2.41 µM | 2.97 nM | – |

The remaining lines, values ahead:

| IC50 (PDE3A) | IC50 (MDA-MB-436 cells) | IC50 [1] | SMILES |
| --- | --- | --- | --- |
| > 30 µM | 2.13 nM | – | CNC(=O)c1ccc(-n2cc3c(n2)CN(Cc2ccc4c([nH]c(=O)c5c(C)cnn54)c2F)C3)cn1 [Example 1-1, 5-(5-((6-fluoro-3-methyl-4-oxo-4,5-dihydropyrazolo[1,5-a]quinoxalin-7-yl)methyl)-5,6-dihydropyrrolo[3,4-c]pyrazol-2(4H)-yl)-N-methylpicolinamide] |
| > 25 µM | > 100 nM | > 1000 nM | CNC(=O)c1ccc(-n2ncc3c2CN(Cc2ccc4c([nH]c(=O)c5c(C)cnn54)c2F)C3)cn1 [Example 1-2, 5-(5-((6-fluoro-3-methyl-4-oxo-4,5-dihydropyrazolo[1,5-a]quinoxalin-7-yl)methyl)-5,6-dihydropyrrolo[3,4-c]pyrazol-1(4H)-yl)-N-methylpicolinamide] |
| > 30 µM | 4.11 nM | – | Cc1cnn2c1c(=O)[nH]c1c(F)c(CN3Cc4cn(-c5ccc(C(=O)NC6CC6)nc5)nc4C3)ccc12 [Example 8, 5-(5-((6-fluoro-3-methyl-4-oxo-4,5-dihydropyrazolo[1,5-a]quinoxalin-7-yl)methyl)-5,6-dihydropyrrolo[3,4-c]pyrazol-2(4H)-yl)-N-cyclopropylpicolinamide] |
| > 30 µM | 5.65 nM | 1190 nM | CNC(=O)c1ccc(-n2cc3c(n2)CN(Cc2ccc4c([nH]c(=O)c5c(F)cnn54)c2F)C3)c(Cl)n1 [Example 16, 5-(5-((3,6-difluoro-4-oxo-4,5-dihydropyrazolo[1,5-a]quinoxalin-7-yl)methyl)-5,6-dihydropyrrolo[3,4-c]pyrazol-2(4H)-yl)-6-chloro-N-methylpicolinamide] |
| > 30 µM | 1.82 nM | – | CNC(=O)c1ccc(-n2cc3c(c2)CN(Cc2ccc4c([nH]c(=O)c5c(C)cnn54)c2F)C3)cn1 [Example 39, 5-(5-((6-fluoro-3-methyl-4-oxo-4,5-dihydropyrazolo[1,5-a]quinoxalin-7-yl)methyl)-5,6-dihydropyrrolo[3,4-c]pyrrol-2(4H)-yl)-N-methylpicolinamide] |
